Measurements taken from patent US20060106014A1, “Methods for treating diabetes” (priority 2004, published 2006).
Like-named read-outs stand apart in the source and are kept apart here.

Tests used:
[1] = target: T1, 5-lipoxygenase (Homo sapiens, UniProt P09917); details: background; cited from earlier work
T1 sequence (P09917 1-674): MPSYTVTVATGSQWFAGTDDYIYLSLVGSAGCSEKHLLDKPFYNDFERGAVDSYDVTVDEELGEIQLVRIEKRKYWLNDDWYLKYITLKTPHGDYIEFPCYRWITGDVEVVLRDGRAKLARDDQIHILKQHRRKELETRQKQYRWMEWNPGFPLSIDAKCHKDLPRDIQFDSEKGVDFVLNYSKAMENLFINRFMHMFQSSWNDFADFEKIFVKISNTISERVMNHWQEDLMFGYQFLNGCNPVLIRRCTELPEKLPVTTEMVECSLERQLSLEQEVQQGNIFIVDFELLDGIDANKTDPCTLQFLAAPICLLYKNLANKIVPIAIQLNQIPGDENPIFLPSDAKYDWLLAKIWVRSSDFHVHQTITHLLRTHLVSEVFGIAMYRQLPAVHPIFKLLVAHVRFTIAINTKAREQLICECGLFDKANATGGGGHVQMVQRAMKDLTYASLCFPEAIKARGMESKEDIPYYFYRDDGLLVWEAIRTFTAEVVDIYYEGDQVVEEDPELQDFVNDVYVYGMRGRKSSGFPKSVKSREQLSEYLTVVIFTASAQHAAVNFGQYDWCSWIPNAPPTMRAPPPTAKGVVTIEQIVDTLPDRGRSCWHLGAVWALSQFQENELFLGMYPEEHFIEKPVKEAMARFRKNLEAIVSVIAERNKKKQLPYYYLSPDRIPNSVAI

[2] = tested on: NIDDM male mice (C57BLKS/J-m+/+Lepr db); experiment: Therapeutic study: serum glucose levels in diabetic animals; type: in vivo; details: i.p. twice daily
Method: In vivo evaluation of the role of dual inhibitor of both 5-LO and 12/15-LO enzymes in the reduction of serum glucose levels and insulin was performed in C57BLKs/J-m+/+Lepr db mice, a non-insulin dependent diabetic mellitus (NIDDM) model, as described in Examples. […] […].
Non-insulin dependent diabetic mellitus (NIDDM) male mice (C57BLKS/J-m+/+Lepr db), weighing 45±5 g (10 weeks of age) and provided by Institute for Animal Reproduction (IAR, Japan), were used.
Groups of 10 non-insulin dependent diabetic mellitus (NIDDM) male mice (C57BLKS/J-m+/+Lepr db), weighing 45±5 g and 10-weeks-old, were used. The animals were housed in Individually Ventilated Cages Racks (IVC Racks) throughout the experiment; all animals were allowed free access to sterilized Lab chow and sterilized distilled water. The test compounds, as well as vehicle (0.5% DMSO/2% Tween 80/0.9% NaCl), were each administered intraperitoneally twice daily (1st at 9:00 A.M. and 2nd at 16:00 P.M.) for a total of 14 consecutive days. Using blood samples collected from the orbital sinus, pre-treatment serum glucose and insulin levels were determined 24 hours prior to the first dosing on day 0. Post-treatment glucose and insulin levels were detected 4 hours after dosing on days 11 and 14. Also, serum glucose and insulin levels were obtained before and 15, 30 and 90 minutes after glucose loading (orally glucose tolerance test (OGTT) 2 g/kg), 4 hours following the dosing on day 11. Serum glucose and Insulin (on days 0, 11 and 14) levels were determined by enzymatic (Mutaratase-GOD) and ELISA (mouse insulin assay kit) methods, respectively. The percentage of post-treatment relative to pre-treatment group values obtained on days 11 and 14 were analyzed using One Way ANOVA followed by Dunnett's test for comparison between vehicle and treated groups. […]
For effect on OGTT, AUC (area under the curve) for the serum glucose at times 0, 15, 30, and 90 minutes after OGTT was plotted for each test compound and its respective vehicle control. […] Body weight and food intake were measured daily through the course of the study.

[3] = target: T2, porcine leukocyte 12/15-lipoxygenase (Sus scrofa, UniProt P16469); experiment: 12/15-Lipoxygenase Enzyme Assay (colorimetric, ferric oxidation of xylenol orange); type: biochemical
T2 construct: purchased Cayman 60300
T2 sequence (P16469 1-663): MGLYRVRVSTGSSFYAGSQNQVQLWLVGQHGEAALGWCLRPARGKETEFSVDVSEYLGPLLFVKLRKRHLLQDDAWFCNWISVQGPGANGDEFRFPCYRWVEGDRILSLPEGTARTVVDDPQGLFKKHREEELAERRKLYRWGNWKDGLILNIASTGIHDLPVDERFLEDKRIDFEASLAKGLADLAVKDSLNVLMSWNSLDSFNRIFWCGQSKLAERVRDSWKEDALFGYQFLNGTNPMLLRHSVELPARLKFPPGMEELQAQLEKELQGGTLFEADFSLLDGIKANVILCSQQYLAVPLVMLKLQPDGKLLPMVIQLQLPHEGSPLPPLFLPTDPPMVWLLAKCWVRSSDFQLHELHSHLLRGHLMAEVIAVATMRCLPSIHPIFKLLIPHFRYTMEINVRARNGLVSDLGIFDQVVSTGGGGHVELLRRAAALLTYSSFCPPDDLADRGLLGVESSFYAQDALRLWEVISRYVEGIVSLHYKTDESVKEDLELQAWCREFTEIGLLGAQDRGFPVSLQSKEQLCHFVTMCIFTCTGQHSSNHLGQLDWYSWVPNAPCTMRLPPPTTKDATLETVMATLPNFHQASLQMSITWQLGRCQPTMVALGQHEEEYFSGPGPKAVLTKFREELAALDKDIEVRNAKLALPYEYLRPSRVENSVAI
Method: This procedure was used for measuring the enzymatic activity of porcine leukocyte 12/15-lipoxygenase using a colorimetric method based on the ferric oxidation of xylenol orange.
(§1) The test compound and/or vehicle were added to 1.3 μL 12/15-lipoxygenase in 50 mM Tris-HCl buffer, pH 7.4. The reaction was initiated by addition of 70 μM arachidonic acid in Tris-HCl buffer, pH 7.4, and terminated after a 10 minute incubation at room temperature by addition of FOX reagent (25 mM sulphuric acid, 100 μM xylenol orange, 100 μM iron (II) sulphate, methanol:water 9:1). The yellow color of acidified xylenol orange was converted to a blue color by the lipid hydroperoxide-mediated oxidation of Fe^2+ ions and the interaction of the resulting Fe^3+ ions with the dye. The complex was allowed to form during a 1 hour incubation at room temperature with shaking. Absorbance of the Fe^3+ complex was then measured at 620 nm using a spectrophotometer.
Negative controls contained enzyme during the incubation step but substrate was not added until after the FOX reagent.

[4] = target: T1, 5-lipoxygenase; experiment: 5-Lipoxygenase Enzyme Assay (colorimetric, ferric oxidation of xylenol orange); type: biochemical; design: purchased Cayman 60402
Method: This procedure was used for measuring the enzymatic activity of human recombinant 5-lipoxygenase using a colorimetric method based on the ferric oxidation of xylenol orange.
as §1, with “was” for “were”, “0.5” for “1.3”, “5-lipoxygenase” for “12/15-lipoxygenase”, “spectrophotometer. Negative controls contained enzyme during the incubation step but substrate was not added until after the FOX reagent.” for “spectrophotometer.”

[5] = read-out: classification as dual inhibitor: 12/15-LO enzyme assay IC50
[6] = read-out: classification as dual inhibitor: 5-LO enzyme assay IC50

IC50 [3, 5] [µM] | IC50 [4, 6] [µM] | SMILES | 5-lipoxygenase inhibition / specificity as reported in the literature [1] | further results
 |  | CC(c1cc2ccccc2s1)N(O)C(N)=O (centres unmarked) [C, Zileuton, reference compound] | specific | reduction in serum glucose relative to the respective vehicle control group (FIG. 2) ([2]; 30 mg/kg, p<0.01): reduction in serum glucose
 |  | CC(Cc1ccc(O)c(O)c1)C(C)Cc1ccc(O)c(O)c1 (centres unmarked) [Compound A, Nordihydroguaiaretic acid (NDGA)] | inhibitor | 
< 5 | < 5 | Cc1c(O)c(C)c2c(c1F)OC(C)(C)CC2 [Compound D, 8-fluoro-2,2,5,7-tetramethylchroman-6-ol] |  | reduction in baseline elevated blood glucose level in comparison to the vehicle group [2]: 13%; IC50 ([3]; read-out: in vitro IC50 value in a 12/15-LO enzyme assay): < 5 µM; IC50 ([4]; read-out: in vitro IC50 value in a 5-LO enzyme assay): < 5 µM
< 5 | < 5 | Cc1c(O)cc2c(c1C)N(c1ccc(O)cc1)C(C)CC2 (centres unmarked) [Compound E, 1-(4-hydroxyphenyl)-2,7,8-trimethyl-1,2,3,4-tetrahydroquinolin-6-ol] |  | lowering of serum glucose levels compared to respective control (FIG. 2) ([2]; 15 mg/kg, p<0.05): significant lowering
